Results as given in PubChem BioAssay (NCI).
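All cell lines were grown in 96-well plates and treated with compound for 48 hours. GI50 is the concentration that inhibits growth by half. TGI: concentration producing complete growth inhibition.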

How the values were obtained:
Assay in all cases: DTP human tumour cell line panel, 48 h
786-0 renal = test system: 786-0 renal
A498 renal = test system: A498 renal
A549 NSCLC = test system: A549 NSCLC
ACHN renal = test system: ACHN renal
BT-549 breast = test system: BT-549 breast
CAKI-1 renal = test system: CAKI-1 renal
CCRF-CEM leukemia = test system: CCRF-CEM leukemia
COLO 205 colon = test system: COLO 205 colon
DU-145 prostate = test system: DU-145 prostate
EKVX NSCLC = test system: EKVX NSCLC
HCC-2998 colon = test system: HCC-2998 colon
HCT-116 colon = test system: HCT-116 colon
HCT-15 colon = test system: HCT-15 colon
HL-60(TB) leukemia = test system: HL-60(TB) leukemia
HOP-62 NSCLC = test system: HOP-62 NSCLC
HT29 colon = test system: HT29 colon
IGROV1 ovarian = test system: IGROV1 ovarian
K-562 leukemia = test system: K-562 leukemia
KM12 colon = test system: KM12 colon
LOX IMVI melanoma = test system: LOX IMVI melanoma
M14 melanoma = test system: M14 melanoma
MALME-3M melanoma = test system: MALME-3M melanoma
MCF7 breast = test system: MCF7 breast
MDA-MB-231 breast = test system: MDA-MB-231 breast
MDA-MB-435 = test system: MDA-MB-435
MOLT-4 leukemia = test system: MOLT-4 leukemia
NCI-H226 lung = test system: NCI-H226 lung
NCI-H23 lung = test system: NCI-H23 lung
NCI-H460 lung = test system: NCI-H460 lung
NCI-H522 lung = test system: NCI-H522 lung
NCI/ADR-RES ovarian = test system: NCI/ADR-RES ovarian
OVCAR-3 ovarian = test system: OVCAR-3 ovarian
OVCAR-4 ovarian = test system: OVCAR-4 ovarian
OVCAR-5 ovarian = test system: OVCAR-5 ovarian
OVCAR-8 ovarian = test system: OVCAR-8 ovarian
PC-3 prostate = test system: PC-3 prostate
RPMI-8226 leukemia = test system: RPMI-8226 leukemia
SF-268 CNS = test system: SF-268 CNS
SF-295 CNS = test system: SF-295 CNS
SF-539 CNS = test system: SF-539 CNS
SK-MEL-2 melanoma = test system: SK-MEL-2 melanoma
SK-MEL-28 melanoma = test system: SK-MEL-28 melanoma
SK-MEL-5 melanoma = test system: SK-MEL-5 melanoma
SK-OV-3 ovarian = test system: SK-OV-3 ovarian
SN12C renal = test system: SN12C renal
SNB-19 CNS = test system: SNB-19 CNS
SNB-75 CNS = test system: SNB-75 CNS
SR leukemia = test system: SR leukemia
SW-620 colon = test system: SW-620 colon
T-47D breast = test system: T-47D breast
TK-10 renal = test system: TK-10 renal
U251 CNS = test system: U251 CNS
UACC-257 melanoma = test system: UACC-257 melanoma
UACC-62 melanoma = test system: UACC-62 melanoma
UO-31 renal = test system: UO-31 renal
RXF 393 renal = test system: RXF 393 renal

CS(=O)(=O)Nc1cc(-c2ccc3ncnc(Nc4ccc(OCc5ccccn5)c(Cl)c4)c3c2)cnc1Cl
GI50 (786-0 renal): 804 nM | TGI (786-0 renal): > 100 µM | GI50 (A498 renal): 155 nM | TGI (A498 renal): 0.641 µM | GI50 (A549 NSCLC): 1090 nM | TGI (A549 NSCLC): 5.48 µM | GI50 (ACHN renal): 1020 nM | TGI (ACHN renal): > 100 µM | GI50 (BT-549 breast): 140 nM | TGI (BT-549 breast): 1230 nM | GI50 (CAKI-1 renal): 1090 nM | TGI (CAKI-1 renal): 3.66 µM | GI50 (CCRF-CEM leukemia): 217 nM | TGI (CCRF-CEM leukemia): > 100 µM | GI50 (COLO 205 colon): 316 nM | TGI (COLO 205 colon): 1850 nM | GI50 (DU-145 prostate): 520 nM | TGI (DU-145 prostate): > 100 µM | GI50 (EKVX NSCLC): 313 nM | TGI (EKVX NSCLC): 3.46 µM | GI50 (HCC-2998 colon): 1130 nM | TGI (HCC-2998 colon): 3.31 µM | GI50 (HCT-116 colon): 648 nM | TGI (HCT-116 colon): > 100 µM | GI50 (HCT-15 colon): 1130 nM | TGI (HCT-15 colon): > 42 µM | GI50 (HL-60(TB) leukemia): 230 nM | TGI (HL-60(TB) leukemia): 2720 nM | GI50 (HOP-62 NSCLC): 646 nM | TGI (HOP-62 NSCLC): > 100000 nM | GI50 (HT29 colon): 456 nM | TGI (HT29 colon): 38.5 µM | GI50 (IGROV1 ovarian): 74.8 nM | TGI (IGROV1 ovarian): 409 nM | GI50 (K-562 leukemia): 1290 nM | TGI (K-562 leukemia): > 100 µM | GI50 (KM12 colon): 572 nM | TGI (KM12 colon): 2180 nM | GI50 (LOX IMVI melanoma): 268 nM | TGI (LOX IMVI melanoma): 1920 nM | GI50 (M14 melanoma): 486 nM | GI50 (MALME-3M melanoma): 85.1 nM | TGI (MALME-3M melanoma): 736 nM | GI50 (MCF7 breast): 185 nM | TGI (MCF7 breast): > 100 µM | GI50 (MDA-MB-231 breast): 313 nM | TGI (MDA-MB-231 breast): 2030 nM | GI50 (MDA-MB-435): 376 nM | TGI (MDA-MB-435): 2780 nM | GI50 (MOLT-4 leukemia): 223 nM | TGI (MOLT-4 leukemia): 750 nM | GI50 (NCI-H226 lung): 549 nM | TGI (NCI-H226 lung): 11 µM | GI50 (NCI-H23 lung): 381 nM | TGI (NCI-H23 lung): > 100 µM | GI50 (NCI-H460 lung): 502 nM | TGI (NCI-H460 lung): > 100 µM | GI50 (NCI-H522 lung): 131 nM | TGI (NCI-H522 lung): 2350 nM | GI50 (NCI/ADR-RES ovarian): 7.07 µM | TGI (NCI/ADR-RES ovarian): > 100 µM | GI50 (OVCAR-3 ovarian): 217 nM | TGI (OVCAR-3 ovarian): 1410 nM | GI50 (OVCAR-4 ovarian): 1490 nM | TGI (OVCAR-4 ovarian): > 100 µM | GI50 (OVCAR-5 ovarian): 0.325 µM | TGI (OVCAR-5 ovarian): 4.58 µM | GI50 (OVCAR-8 ovarian): 1360 nM | TGI (OVCAR-8 ovarian): 26.8 µM | GI50 (PC-3 prostate): 349 nM | TGI (PC-3 prostate): > 100 µM | GI50 (RPMI-8226 leukemia): 286 nM | TGI (RPMI-8226 leukemia): 1030 nM | GI50 (SF-268 CNS): 429 nM | TGI (SF-268 CNS): > 100 µM | GI50 (SF-295 CNS): 526 nM | TGI (SF-295 CNS): 4.75 µM | GI50 (SF-539 CNS): 310 nM | TGI (SF-539 CNS): 2380 nM | GI50 (SK-MEL-2 melanoma): 184 nM | TGI (SK-MEL-2 melanoma): 739 nM | GI50 (SK-MEL-28 melanoma): 256 nM | TGI (SK-MEL-28 melanoma): 3.92 µM | GI50 (SK-MEL-5 melanoma): 214 nM | TGI (SK-MEL-5 melanoma): 680 nM | GI50 (SK-OV-3 ovarian): 210 nM | TGI (SK-OV-3 ovarian): 1160 nM | GI50 (SN12C renal): 350 nM | TGI (SN12C renal): > 100 µM | GI50 (SNB-19 CNS): 449 nM | TGI (SNB-19 CNS): > 100 µM | GI50 (SNB-75 CNS): 43.8 nM | TGI (SNB-75 CNS): 797 nM | GI50 (SR leukemia): 374 nM | TGI (SR leukemia): 2770 nM | GI50 (SW-620 colon): 448 nM | TGI (SW-620 colon): 10.5 µM | GI50 (T-47D breast): 25.8 nM | TGI (T-47D breast): 217 nM | GI50 (TK-10 renal): 230 nM | TGI (TK-10 renal): 1780 nM | GI50 (U251 CNS): 316 nM | TGI (U251 CNS): 2310 nM | GI50 (UACC-257 melanoma): 378 nM | TGI (UACC-257 melanoma): 7.1 µM | GI50 (UACC-62 melanoma): 264 nM | TGI (UACC-62 melanoma): 1580 nM | GI50 (UO-31 renal): 337 nM | TGI (UO-31 renal): 3.86 µM

O=c1[nH]c(=O)n(C2C[C@@H](O)[C@@H](CO)O2)cc1F (stereo partly drawn)
TGI (786-0 renal): > 100 µM | TGI (A498 renal): 7.48 µM | TGI (A549 NSCLC): > 100 µM | TGI (ACHN renal): > 100 µM | TGI (BT-549 breast): > 100000 nM | TGI (CAKI-1 renal): > 100 µM | GI50 (CCRF-CEM leukemia): 19.8 nM | TGI (CCRF-CEM leukemia): > 100 µM | TGI (DU-145 prostate): > 100 µM | TGI (HCC-2998 colon): 4.45 µM | GI50 (HCT-116 colon): 28.9 nM | TGI (HCT-116 colon): > 100 µM | GI50 (HL-60(TB) leukemia): 482 nM | TGI (HL-60(TB) leukemia): > 100000 nM | TGI (HOP-62 NSCLC): 956 nM | TGI (HT29 colon): > 100 µM | GI50 (K-562 leukemia): 156 nM | TGI (K-562 leukemia): > 100 µM | TGI (LOX IMVI melanoma): > 100000 nM | GI50 (MCF7 breast): < 10 nM | TGI (MCF7 breast): > 100 µM | GI50 (MOLT-4 leukemia): 37.5 nM | TGI (NCI-H23 lung): > 100 µM | TGI (NCI-H460 lung): 9.8 µM | GI50 (OVCAR-5 ovarian): 8.4 µM | TGI (OVCAR-5 ovarian): > 100 µM | TGI (OVCAR-8 ovarian): > 100 µM | TGI (RXF 393 renal): 13.3 µM | TGI (SF-539 CNS): > 60800 nM | GI50 (SK-MEL-28 melanoma): 433 nM | TGI (SK-MEL-28 melanoma): > 100 µM | TGI (SK-MEL-5 melanoma): 385 nM | TGI (SNB-19 CNS): > 100 µM | TGI (SNB-75 CNS): > 21400 nM | GI50 (SR leukemia): 184 nM | TGI (SR leukemia): > 38100 nM | TGI (TK-10 renal): > 100000 nM | TGI (UACC-62 melanoma): > 100000 nM | TGI (UO-31 renal): 30.3 µM
